The record followed here is US20220023257A1, “TREATMENT OF DEMENTIA-ASSOCIATED TAUOPATHIES” (Medizinische Hochschule Hannover (MHH), priority 2018, published 2022).

The subject of assay [1] is WT mice injected with AAV-eGFP-Tau[R406W]. The assay is described as follows: Tau hyperphosphorylation and recency test in WT mice after AAV-eGFP-Tau[R406W] injection into the prefrontal cortex. It is filed as in vivo. The conditions noted are these: intraperitoneal, once daily for 16 days. Here is the method: A. Scheme showing experimental design: AAV-eGFP-Tau[R406W] was injected stereotactically into the prefrontal cortex (PFC) of WT mice. After 3 weeks of recovery time, animals were intraperitoneally injected with either Vehicle or Amisulpride once daily for 16 days. B. Staining of prefrontal cortical slices of mice after AAV injection and treatment with phospho-specific Tau antibody T205. Representative overview image and magnification are shown. C. Quantification of the mean intensities of eGFP-Tau and pTau over the whole slice and calculation of the pTau/Tau ratio. Data are shown as mean+SEM (N=5). * indicates statistical significance of p<0.05 (one-tailed unpaired t-test). D. Results of test for temporal order recognition memory (recency test). Quantification of exploration time spent with less recent (L) and recent (R) object and discrimination index. Data are presented as mean+SEM (9≥N≥7). * indicates statistical significance of p<0.05, ** p<0.01; n.s., not statistically different (paired t-test and Wilcoxon signed rank test were applied to analyze exploration time, one-way ANOVA was applied to analyze the discrimination ratio).

The target in assay [2] is T1, 5-HT7R (Homo sapiens, UniProt P34969).
T1 construct: HA (N); expressed in transfected cells; host or cells: N1E-115 (neuroblastoma cells)
The assay is described as follows: 5-HT7R-induced Tau aggregation in HEK293 Tau-BiFC cells. In kind it is cell-based. The following applies: HEK293 Tau-BiFC cells transfected with CFP-5-HT7R; maximum intensity projections.
Description: Signals are normalized to DMSO-treated pcDNA-transfected cells. Data are represented as means+SDs (N=3). *** indicates statistical significance of p<0.001, n.s. not statistically different (one-way ANOVA, followed by Turkey's post hoc test). […] Representative maximum intensity projections of HEK293 Tau-BiFC cells transfected with control vector (mCerulean, blue) or 5-HT7R (CFP-5-HT7R, blue) upon the indicated treatment. […] Membranes were probed with total Tau (Abcam) and GAPDH antibody (Millipore). Signals are normalized to DMSO-treated pcDNA-transfected cells. Data are represented as means+SDs (N=3). ** indicates statistical significance of p<0.01, *** p<0.001, n.s. not statistically different (one-way ANOVA, followed by Turkey's post hoc test). […] HEK293 Tau-BiFC cells were transfected with (HA)5-HT7R and treated with the indicated concentration of Amisulpride.

Assay [3] relates to eGFP-Tau[R406W]-infected primary cortical neurons. The assay is described as follows: Tau tangle formation and apoptosis in eGFP-Tau[R406W]-infected primary cortical neurons. In kind it is cell-based, mice. The following applies: 50 μM Amisulpride for three days, DIV 10-13. The text has this:
White boxes and its corresponding magnifications show representative neurons with and without tau tangles. Arrow heads indicate cells that were counted as tangle-positive. B. Quantification of tau tangles. The number of tangle-positive neurons was counted in a confined area in 6 independent experiments and is represented as a fraction of total number of infected neurons. * indicates statistical significance of p<0.05; ** p<0.01 (N=6; total analyzed cells […], one-way ANOVA, followed by Dunnett's post hoc test). C. […] D. Representative images of DIV14 primary cortical WT neurons infected at DIV10 either with AAV constructs encoding eGFP (white) or eGFP-Tau[R406W] (green). […] Fluorescence from cleaved substrate of active caspase3/7 indicating apoptosis is shown. E. Quantification of apoptosis. Apoptotic cells showing caspase3/7 activity were counted in a confined area in 6 independent experiments and are represented as a fraction of total number of infected neurons.
A. Scheme showing experimental design. […] Neurons were analyzed at DIV 13. […] Arrowheads indicate cells that were counted as tangle-positive. […] Quantification of Tau tangles. The number of tangle-positive neurons was counted in a confined area in at least four independent experiments and is represented as a fraction of the total number of infected neurons. […] GAPDH expression was detected in a soluble fraction. […]

T1 sequence (P34969 whole entry): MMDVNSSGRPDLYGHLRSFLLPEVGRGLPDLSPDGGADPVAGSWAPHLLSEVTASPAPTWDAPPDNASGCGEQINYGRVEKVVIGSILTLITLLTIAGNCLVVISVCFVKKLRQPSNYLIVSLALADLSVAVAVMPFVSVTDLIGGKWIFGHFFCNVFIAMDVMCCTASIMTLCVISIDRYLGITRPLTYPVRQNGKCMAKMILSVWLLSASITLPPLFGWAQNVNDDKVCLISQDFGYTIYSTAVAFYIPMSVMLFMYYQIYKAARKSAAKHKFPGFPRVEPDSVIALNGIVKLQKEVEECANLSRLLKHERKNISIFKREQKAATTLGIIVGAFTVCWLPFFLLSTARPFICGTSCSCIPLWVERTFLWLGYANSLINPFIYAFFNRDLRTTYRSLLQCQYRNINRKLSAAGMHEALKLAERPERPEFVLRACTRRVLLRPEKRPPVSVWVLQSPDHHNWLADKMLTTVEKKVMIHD

On to `CCN1CCCC1CNC(=O)c1cc(S(=O)(=O)CC)c(N)cc1OC` (centres unmarked) [Amisulpride], for which the “Tau[R406W]-induced memory impairments (recency test)” value in assay [1] is “ameliorates”. In addition, the “Tau[R406W]-induced Tau hyperphosphorylation (pTau/Tau ratio, T205 staining)” value in assay [1] (prefrontal cortical slices) is “ameliorates”. Moreover, in assay [2], the “Tangles of Venus-Tau (VN-Tau) in 5-HT7R-transfected cells” value was “disappeared”. Also, in assay [3], the “5-HT7R-induced Tau tangle formation” value is reported as “reduced” and the “apoptosis (caspase3/7 activity)” value is listed as “reduced”.
